Experiments:
[1] = test system: Ehrlich ascites carcinoma cells; conditions: maximum dose level at which mice survive 100 to 200 percent of control survival days; intraperitoneally once a day for 10 days, doses 25 mg/kg to 0.19 mg/kg
[2] = tumour-inoculated ICR/JCL mice, intraperitoneally once a day for 10 days, doses 25 mg/kg to 0.19 mg/kg, Behres-Karber's method, observed up to 50 days

Row | SMILES | ED50 [1] | LD50 [2]
1 | Cc1c(N)nc(C(CC(N)=O)NCC(N)C(N)=O)nc1C(=O)NC(C(=O)NC(C)C(O)C(C)C(=O)NC(C(=O)NCCc1nc(-c2nc(C(=O)NCCCN3CCN(CCCN)CC3)cs2)cs1)C(C)O)C(OC1OC(CO)C(O)C(O)C1OC1OC(CO)C(O)C(OC(N)=O)C1O)c1cnc[nH]1 (centres unmarked) [Compound 28, 3-[1-{4-(3-aminopropyl)}-piperazino]propylamino-bleomycin] | 0.19 | –
2 | Cc1c(N)nc(C(CC(N)=O)NCC(N)C(N)=O)nc1C(=O)NC(C(=O)NC(C)C(O)C(C)C(=O)NC(C(=O)NCCc1nc(-c2nc(C(=O)NCCCNCCCN3CCCCC3)cs2)cs1)C(C)O)C(OC1OC(CO)C(O)C(O)C1OC1OC(CO)C(O)C(OC(N)=O)C1O)c1cnc[nH]1 (centres unmarked) [Compound 30, 3-(3-piperidinopropyl)-aminopropylamino-bleomycin] | 0.39 | –
3 | Cc1c(N)nc(C(CC(N)=O)NCC(N)C(N)=O)nc1C(=O)NC(C(=O)NC(C)C(O)C(C)C(=O)NC(C(=O)NCCc1nc(-c2nc(C(=O)NCCCN3CCOCC3)cs2)cs1)C(C)O)C(OC1OC(CO)C(O)C(O)C1OC1OC(CO)C(O)C(OC(N)=O)C1O)c1cnc[nH]1 (centres unmarked) [Compound 26, 3-(morpholino)-propylamoni-bleomycin] | 0.78 | –
4 | Cc1c(N)nc(C(CC(N)=O)NCC(N)C(N)=O)nc1C(=O)NC(C(=O)NC(C)C(O)C(C)C(=O)NC(C(=O)NCCc1nc(-c2nc(C(=O)NCCCNCCCO)cs2)cs1)C(C)O)C(OC1OC(CO)C(O)C(O)C1OC1OC(CO)C(O)C(OC(N)=O)C1O)c1cnc[nH]1 (centres unmarked) [Compound 32, 3-(3-hydroxypropyl)-aminopropylamino-bleomycin] | 0.19 | –
5 | CCN(CC)CCCNC(=O)c1csc(-c2csc(CCNC(=O)C(NC(=O)C(C)C(O)C(C)NC(=O)C(NC(=O)c3nc(C(CC(N)=O)NCC(N)C(N)=O)nc(N)c3C)C(OC3OC(CO)C(O)C(O)C3OC3OC(CO)C(O)C(OC(N)=O)C3O)c3cnc[nH]3)C(C)O)n2)n1 (centres unmarked) [Compound 11, 3,-N,N-diethylaminopropylamino-bleomycin] | 0.19 | –
6 | Cc1c(N)nc(C(CC(N)=O)NCC(N)C(N)=O)nc1C(=O)NC(C(=O)NC(C)C(O)C(C)C(=O)NC(C(=O)NCCc1nc(-c2nc(C(=O)NCCCN3CCNCC3)cs2)cs1)C(C)O)C(OC1OC(CO)C(O)C(O)C1OC1OC(CO)C(O)C(OC(N)=O)C1O)c1cnc[nH]1 (centres unmarked) [Compound 14, 3-(piperazino)propylamino-bleomycin] | 0.39 | –
7 | CNCCCNC(=O)c1csc(-c2csc(CCNC(=O)C(NC(=O)C(C)C(O)C(C)NC(=O)C(NC(=O)c3nc(C(CC(N)=O)NCC(N)C(N)=O)nc(N)c3C)C(OC3OC(CO)C(O)C(O)C3OC3OC(CO)C(O)C(OC(N)=O)C3O)c3cnc[nH]3)C(C)O)n2)n1 (centres unmarked) [Compound 17, 3-N-methylaminopropylamino-bleomycin] | 0.19 | –
8 | Cc1c(N)nc(C(CC(N)=O)NCC(N)C(N)=O)nc1C(=O)NC(C(=O)NC(C)C(O)C(C)C(=O)NC(C(=O)NCCc1nc(-c2nc(C(=O)NCCCN(C)CCCN)cs2)cs1)C(C)O)C(OC1OC(CO)C(O)C(O)C1OC1OC(CO)C(O)C(OC(N)=O)C1O)c1cnc[nH]1 (centres unmarked) [Compound 22, 3-[N-methyl-N-(3-aminopropyl)]-aminopropylamino-bleomycin] | 0.19 | –
9 | Cc1c(N)nc(C(CC(N)=O)NCC(N)C(N)=O)nc1C(=O)NC(C(=O)NC(C)C(O)C(C)C(=O)NC(C(=O)NCCc1nc(-c2nc(C(=O)NCCCNCCCN3CCCC3)cs2)cs1)C(C)O)C(OC1OC(CO)C(O)C(O)C1OC1OC(CO)C(O)C(OC(N)=O)C1O)c1cnc[nH]1 (centres unmarked) [Compound 29, 3-(3-pyrrolidinopropyl)-aminopropylamino-bleomycin] | 0.09 | –
10 | CO[C@@]12[C@H](COC(N)=O)C3=C(C(=O)C(C)=C(N)C3=O)N1C[C@@H]1N[C@@H]12 [Mytomycin C, reference compound] | 0.39 | –
11 | Cc1c(N)nc([C@H](CC(N)=O)NC[C@H](N)C(N)=O)nc1C(=O)N[C@H](C(=O)N[C@H](C)[C@@H](O)[C@H](C)C(=O)N[C@H](C(=O)NCCc1nc(-c2nc(C(=O)NCCC[S+](C)C)cs2)cs1)[C@@H](C)O)[C@@H](O[C@@H]1O[C@@H](CO)[C@@H](O)[C@H](O)[C@@H]1O[C@H]1O[C@H](CO)[C@@H](O)[C@H](OC(N)=O)[C@@H]1O)c1c[nH]cn1.[Br-] [Compound 1, Bleomycin A2, reference compound] | 0.78 | –
12 | Cc1c(N)nc(C(CC(N)=O)NCC(N)C(N)=O)nc1C(=O)NC(C(=O)NC(C)C(O)C(C)C(=O)NC(C(=O)NCCc1nc(-c2nc(C(=O)NCCCNCCCNC3CCCCC3)cs2)cs1)C(C)O)C(OC1OC(CO)C(O)C(O)C1OC1OC(CO)C(O)C(OC(N)=O)C1O)c1cnc[nH]1 (centres unmarked) [Compound 39, 3-(3-cyclohexylaminopropyl)-aminopropylamino bleomycin] | 0.19 | –
13 | Cc1c(N)nc(C(CC(N)=O)NCC(N)C(N)=O)nc1C(=O)NC(C(=O)NC(C)C(O)C(C)C(=O)NC(C(=O)NCCc1nc(-c2nc(C(=O)NCC3CCNCC3)cs2)cs1)C(C)O)C(OC1OC(CO)C(O)C(O)C1OC1OC(CO)C(O)C(OC(N)=O)C1O)c1cnc[nH]1 (centres unmarked) [Compound 41, 4-piperidylmethylamino-bleomycin] | 0.78 | –
14 | Cc1c(N)nc(C(CC(N)=O)NCC(N)C(N)=O)nc1C(=O)NC(C(=O)NC(C)C(O)C(C)C(=O)NC(C(=O)NCCc1nc(-c2nc(C(=O)NCCCNC3CCCCC3)cs2)cs1)C(C)O)C(OC1OC(CO)C(O)C(O)C1OC1OC(CO)C(O)C(OC(N)=O)C1O)c1cnc[nH]1 (centres unmarked) [Compound 38, 3-cyclohexylaminopropylamino-bleomycin] | 0.39 | –
15 | COCCCNCCCNC(=O)c1csc(-c2csc(CCNC(=O)C(NC(=O)C(C)C(O)C(C)NC(=O)C(NC(=O)c3nc(C(CC(N)=O)NCC(N)C(N)=O)nc(N)c3C)C(OC3OC(CO)C(O)C(O)C3OC3OC(CO)C(O)C(OC(N)=O)C3O)c3cnc[nH]3)C(C)O)n2)n1 (centres unmarked) [Compound 33, 3-(3-methoxypropyl)-aminopropylaminobleomycin] | 0.19 | 7.5
16 | Cc1c(N)nc(C(CC(N)=O)NCC(N)C(N)=O)nc1C(=O)NC(C(=O)NC(C)C(O)C(C)C(=O)NC(C(=O)NCCc1nc(-c2nc(C(=O)NCCCNCCCN3CCOCC3)cs2)cs1)C(C)O)C(OC1OC(CO)C(O)C(O)C1OC1OC(CO)C(O)C(OC(N)=O)C1O)c1cnc[nH]1 (centres unmarked) [Compound 31, 3-(3-morpholinopropyl)-aminopropylamino-bleomycin] | 0.19 | –
17 | Cc1c(N)nc(C(CC(N)=O)NCC(N)C(N)=O)nc1C(=O)NC(C(=O)NC(C)C(O)C(C)C(=O)NC(C(=O)NCCc1nc(-c2nc(C(=O)NCCC[N+](C)(C)C)cs2)cs1)C(C)O)C(OC1OC(CO)C(O)C(O)C1OC1OC(CO)C(O)C(OC(N)=O)C1O)c1cnc[nH]1 (centres unmarked) [Compound 20, 3-(N,N,N-trimethyl)-aminopropylamino-bleomycin] | 0.19 | –
18 | Cc1c(N)nc(C(CC(N)=O)NCC(N)C(N)=O)nc1C(=O)NC(C(=O)NC(C)C(O)C(C)C(=O)NC(C(=O)NCCc1nc(-c2nc(C(=O)NCCCN3CCCC3)cs2)cs1)C(C)O)C(OC1OC(CO)C(O)C(O)C1OC1OC(CO)C(O)C(OC(N)=O)C1O)c1cnc[nH]1 (centres unmarked) [Compound 24, 3-(pyrrolidino)-propylamino-bleomycin] | 0.39 | –
19 | Cc1c(N)nc(C(CC(N)=O)NCC(N)C(N)=O)nc1C(=O)NC(C(=O)NC(C)C(O)C(C)C(=O)NC(C(=O)NCCc1nc(-c2nc(C(=O)NCCNCC(C)O)cs2)cs1)C(C)O)C(OC1OC(CO)C(O)C(O)C1OC1OC(CO)C(O)C(OC(N)=O)C1O)c1cnc[nH]1 (centres unmarked) [Compound 13, 2-(2-hydroxypropyl)-aminoethylamino-bleomycin] | 0.39 | –
20 | Cc1c(N)nc(C(CC(N)=O)NCC(N)C(N)=O)nc1C(=O)NC(C(=O)NC(C)C(O)C(C)C(=O)NC(C(=O)NCCc1nc(-c2nc(C(=O)NCCCN(C)C)cs2)cs1)C(C)O)C(OC1OC(CO)C(O)C(O)C1OC1OC(CO)C(O)C(OC(N)=O)C1O)c1cnc[nH]1 (centres unmarked) [Compound 19, 3-(N,N-dimethyl)-aminopropylamino-bleomycin] | 0.39 | –
21 | Cc1c(N)nc(C(CC(N)=O)NCC(N)C(N)=O)nc1C(=O)NC(C(=O)NC(C)C(O)C(C)C(=O)NC(C(=O)NCCc1nc(-c2nc(C(=O)NCC(C)N)cs2)cs1)C(C)O)C(OC1OC(CO)C(O)C(O)C1OC1OC(CO)C(O)C(OC(N)=O)C1O)c1cnc[nH]1 (centres unmarked) [Compound 16, 2-aminopropylamino-bleomycin] | 0.39 | –
22 | Cc1c(N)nc(C(CC(N)=O)NCC(N)C(N)=O)nc1C(=O)NC(C(=O)NC(C)C(O)C(C)C(=O)NC(C(=O)NCCc1nc(-c2nc(C(=O)NCCN(C)C)cs2)cs1)C(C)O)C(OC1OC(CO)C(O)C(O)C1OC1OC(CO)C(O)C(OC(N)=O)C1O)c1cnc[nH]1 (centres unmarked) [Compound 9, 3-N,N-dimethylaminoethylamino-bleomycin] | 0.39 | –
23 | CCCCNCCCNCCCNC(=O)c1csc(-c2csc(CCNC(=O)C(NC(=O)C(C)C(O)C(C)NC(=O)C(NC(=O)c3nc(C(CC(N)=O)NCC(N)C(N)=O)nc(N)c3C)C(OC3OC(CO)C(O)C(O)C3OC3OC(CO)C(O)C(OC(N)=O)C3O)c3cnc[nH]3)C(C)O)n2)n1 (centres unmarked) [Compound 12, 3-(3-N-butyl-aminopropyl)-aminopropylamino-bleomycin] | 0.19 | –
24 | Cc1c(N)nc(C(CC(N)=O)NCC(N)C(N)=O)nc1C(=O)NC(C(=O)NC(C)C(O)C(C)C(=O)NC(C(=O)NCCc1nc(-c2nc(C(=O)NCCCN3CCCCC3)cs2)cs1)C(C)O)C(OC1OC(CO)C(O)C(O)C1OC1OC(CO)C(O)C(OC(N)=O)C1O)c1cnc[nH]1 (centres unmarked) [Compound 25, 3-(piperidino)-propylamino-bleomycin] | 0.39 | –
25 | Cc1c(N)nc(C(CC(N)=O)NCC(N)C(N)=O)nc1C(=O)NC(C(=O)NC(C)C(O)C(C)C(=O)NC(C(=O)NCCc1nc(-c2nc(C(=O)NCCc3cnc[nH]3)cs2)cs1)C(C)O)C(OC1OC(CO)C(O)C(O)C1OC1OC(CO)C(O)C(OC(N)=O)C1O)c1cnc[nH]1 (centres unmarked) [Compound 42, 2-(4-imidazolyl)-ethylamino-bleomycin] | 0.78 | –

— patent publication USRE30451E, “Novel process for producing antibiotics bleomycin” (priority 1969, dated 1980)
